Where two headings read alike, the source gives them in different places.
Key:
[1] = target: T1, glycine recognition site of the NMDA receptor-ion channel complex (cortical membranes), UniProt Q05586); assay: displacement of labelled glycine from cortical membranes; type: binding; conditions: cortical membranes; read-out: concentration displacing 50% of labelled glycine from its binding sites
T1 construct: from tissue
Source text: (§1) 1) they displace labelled glycine from cortical membranes with an EC50 value 5-10 times lower than that of kynurenate;

[2] = test system: NMDA receptors present on guinea-pig ileum; assay: antagonism of glutamate or NMDA actions on guinea-pig ileum; type: cell-based; conditions: guinea-pig terminal ileum; read-out: concentration antagonising 50% of glutamate or NMDA actions
Source text: 2) they antagonise in […] way the glutamate effect on NMDA receptors present on guinea-pig ileum: on this test their effect is competitively antagonized by glycine.

[3] = test system: mouse cerebral cortex slices; assay: antagonism of glutamate or NMDA actions on mouse cerebral cortex slices; type: cell-based; conditions: brain slices, read-out: concentration antagonising 50% of glutamate or NMDA actions
Source text: (§2) The compounds I were also active in mouse cerebral cortex slices according to Proc. Natl. Acad. Sci. USA 85; 6547-6550--1988, in the prevention of glutamate toxicity in cultured cells and in the prevention of NMDA induced convulsions in mice.

cultured cells = assay: prevention of glutamate toxicity in cultured cells; type: cell-based
Source text: as §2

[4] = test system: NMDA receptors present on guinea-pig ileum; conditions: guinea-pig myenteric plexus; cited from earlier work
[5] = target: T2, glycine recognition site of the NMDA receptor-ion channel complex (cortical membranes) (Homo sapiens, UniProt Q05586); assay: displacement of labelled glycine from cortical membranes; type: binding
T2 construct: from tissue
Source text: as §1

O=C(O)c1cc(S)c2ccc(Cl)cc2n1 [7-chloro-4-thiokynurenic acid, 7-chloro-4-thio-quinoline-2-carboxylic acid]
IC50 [1]: 1 µM | IC50 [2]: 5 µM | IC50 [3]: 5 µM | concentration antagonising the glutamate neurotoxicity (cultured cells): 0.08 µM

O=C(O)c1cc(=O)c2ccccc2[nH]1 [kynurenic acid]
antagonistic activity of the glutamate effect [4]: antagonistic activity of the glutamate effect

O=C(O)c1cc(S)c2ccccc2n1 [thiokynurenic acid, 4-thio-quinoline-2-carboxylic (thiokynurenic) acid]
mode of action at the glycine receptors [5]: competitive antagonists of the glycine receptors | mode of action at the glycine receptors ([5]; listed as 4thiokynurenic acid): competitive antagonists of a particular kind of glycine receptors

Reference: US5250541A, “Kynurenic acid derivatives, their preparation and pharmaceutical compositions containing them” (Fidia S.p.A., priority 1989, dated 1993)
